According to the supplement of paper PMC10307832:

Tests used:
[1] = compound: Nc1ncn([C@H]2C[C@H](O)[C@@H](CO)O2)c(=O)n1 [Decitabine]; assay: relative viability (nuclei count vs DMSO), 5 days (fraction); higher = more cells survive
In short: (§1)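 Vehicle-anchored 1536-well plates of lung cancer cell lines, held overnight at 37 °C, were pinned with five library-drug doses (not always all listed) spaced by √10. No medium change followed over the next 5 days, after which the cells were fixed, permeabilised and Hoechst-stained together and imaged at 4×. Nuclei were counted with MetaXpress, and viability is treated-well nuclei over vehicle-well nuclei, taken as a median across plates. Plates passed with control CV below 25% and at least one doubling.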

[2] = compound: O=C(C[C@H]1NCCC[C@@H]1O)Cn1cnc2cc(Br)c(Cl)cc2c1=O (racemic) [Halofuginone]; assay: as above
In short: as §1

Cell Line	relative viability ([1]; 0.04 µM)	relative viability ([1]; 0.1265 µM)	relative viability ([1]; 0.4 µM)	relative viability ([1]; 1.265 µM)	relative viability ([1]; 2 µM, anchor plate)	relative viability ([1]; 4 µM)	relative viability ([2]; 0.001 µM)	relative viability ([2]; 0.003162 µM)	relative viability ([2]; 0.01 µM)	relative viability ([2]; 0.03162 µM)	relative viability ([2]; 0.1 µM)
HARA	0.79	0.818	0.482	0.381	0.519	0.374	0.963	0.927	0.915	1.12	0.827
NCI-H650	0.717	0.596	0.363	0.325	0.31	0.332	1.04	1.01	0.956	0.881	0.719
NCI-H1975	0.594	0.526	0.372	0.352	0.394	0.358	1.05	0.943	0.953	0.692	0.442
NCI-H2085	0.812	0.768	0.65	0.528	0.559	0.528	1.03	1.07	0.989	1.04	0.935
NCI-H3122	0.964	0.964	0.624	0.473	0.471	0.647	1	0.984	0.968	0.941	0.95
NCI-H1651	0.954	1.01	0.961	0.799	0.64	0.767	0.983	1.14	0.966	0.934	0.735
NCI-H522	0.949	0.938	0.624	0.627	0.686	0.611	1.06	0.924	1.04	1.01	0.769
NCI-H441	0.406	0.381	0.274	0.229	0.25	0.238	1.14	1.12	1.06	0.943	0.596
ABC-1	0.804	0.97	0.758	0.733	1.12	0.67	0.939	1.02	0.881	0.934	0.77
NCI-H2126	0.906	0.958	0.709	0.633	0.573	0.582	1.02	0.992	0.949	0.968	0.88
RERF-LC-KJ	0.951	0.967	0.561	0.688	0.728	0.642	1.08	1.07	0.951	0.966	0.912
